Here are results for 30 molecules from ChEMBL document CHEMBL3272011, “Aminobenzoic acid diuretics. 9. 3,4-Disubstituted 5-acylaminobenzoic acids and related compounds” (1977).

The structures appear in SMILES notation. Active and inactive are the calls of the source. No cut-off for these calls is given here.

Holding throughout (type): functional, Canis lupus familiaris, Urine
For assay [1], the system named is Canis familiaris. Kind of assay: Diuretic effect in mongrel dog assessed as urinary excretion of water at 1 mg/kg, iv after 3 hrs (reference value: 0.93 +/- 0.35 ml/kg).
Assay [2] concerns Canis familiaris. As to the kind of experiment: Diuretic effect in mongrel dog assessed as urinary excretion of water at 0.25 mg/kg, iv after 3 hrs (reference value: 0.93 +/- 0.35 ml/kg).
The subject of assay [3] is Canis familiaris. As to the kind of experiment: Diuretic effect in mongrel dog assessed as urinary excretion of Na+ at 1 mg/kg, iv after 3 hrs (reference value: 0.10 +/- 0.02 mequiv/kg).
For assay [4], the system named is Canis familiaris. Kind of assay: Diuretic effect in mongrel dog assessed as urinary excretion of Na+ at 0.25 mg/kg, iv after 3 hrs (reference value: 0.10 +/- 0.02 mequiv/kg).
Assay [5] relates to Canis familiaris. As to the kind of experiment: Diuretic effect in mongrel dog assessed as urinary excretion of K+ at 1 mg/kg, iv after 3 hrs (reference value: 0.16 +/- 0.01 mequiv/kg).
Assay [6] has as its system Canis familiaris. As to the kind of experiment: Diuretic effect in mongrel dog assessed as urinary excretion of K+ at 0.25 mg/kg, iv after 3 hrs (reference value: 0.16 +/- 0.01 mequiv/kg).
Assay [7] concerns Canis familiaris. Kind of assay: Diuretic effect in mongrel dog assessed as urinary excretion of Cl- at 1 mg/kg, iv after 3 hrs (reference value: 0.08 +/- 0.02 mequiv/kg).
The test system of assay [8] is Canis familiaris. Kind of assay: Diuretic effect in mongrel dog assessed as urinary excretion of Cl- at 0.25 mg/kg, iv after 3 hrs (reference value: 0.08 +/- 0.02 mequiv/kg).
Assay [9] deals with Canis familiaris. As to the kind of experiment: Diuretic effect in mongrel dog assessed as urinary excretion of Na+ at 1 mg/kg, po after 3 hrs (reference value: 0.10 +/- 0.02 mequiv/kg).
Assay [10] concerns Canis familiaris. Kind of assay: Diuretic effect in mongrel dog assessed as urinary excretion of water at 1 mg/kg, po after 3 hrs (reference value: 0.93 +/- 0.35 ml/kg).
Assay [11] relates to Canis familiaris. As to the kind of experiment: Diuretic effect in mongrel dog assessed as urinary excretion of K+ at 1 mg/kg, po after 3 hrs (reference value: 0.16 +/- 0.01 mequiv/kg).
The subject of assay [12] is Canis familiaris. Kind of assay: Diuretic effect in mongrel dog assessed as urinary excretion of Cl- at 1 mg/kg, po after 3 hrs (reference value: 0.08 +/- 0.02 mequiv/kg).
Assay [13] relates to Canis familiaris. Kind of assay: Diuretic effect in mongrel dog assessed as urinary excretion of water at 10 mg/kg, iv after 3 hrs (reference value: 0.93 +/- 0.35 ml/kg).
Assay [14] concerns Canis familiaris. Kind of assay: Diuretic effect in mongrel dog assessed as urinary excretion of Na+ at 10 mg/kg, iv after 3 hrs (reference value: 0.10 +/- 0.02 mequiv/kg).
Assay [15] has as its system Canis familiaris. Kind of assay: Diuretic effect in mongrel dog assessed as urinary excretion of K+ at 10 mg/kg, iv after 3 hrs (reference value: 0.16 +/- 0.01 mequiv/kg).
The test system of assay [16] is Canis familiaris. Kind of assay: Diuretic effect in mongrel dog assessed as urinary excretion of Cl- at 10 mg/kg, iv after 3 hrs (reference value: 0.08 +/- 0.02 mequiv/kg).
Assay [17] deals with Canis familiaris. As to the kind of experiment: Diuretic effect in mongrel dog assessed as urinary excretion of water at 0.1 mg/kg, iv after 3 hrs (reference value: 0.93 +/- 0.35 ml/kg).
Assay [18] relates to Canis familiaris. Kind of assay: Diuretic effect in mongrel dog assessed as urinary excretion of Na+ at 0.1 mg/kg, iv after 3 hrs (reference value: 0.10 +/- 0.02 mequiv/kg).

As to `O=CNc1cc(C(=O)O)cc(NCc2ccccc2)c1Oc1ccccc1`, the Activity in the assay with Canis familiaris [1] was 8 mL/kg; in the assay on Canis familiaris [2] it was 9 mL/kg; in the assay on Canis familiaris [3], 1.3 milliequivalent/kg; in the assay on Canis familiaris [4], 1.1 milliequivalent/kg; in the assay on Canis familiaris [5], 0.26 milliequivalent/kg; in the assay on Canis familiaris [6] it was 0.23 milliequivalent/kg. Moreover, the Activity is 1.3 milliequivalent/kg in the assay on Canis familiaris [7] and 1.5 milliequivalent/kg with Canis familiaris [8].

Regarding `CC(=O)Nc1cc(C(=O)O)cc(OCc2ccccc2)c1-c1ccccc1`, the Activity in the assay with Canis familiaris [1] is 8 mL/kg; in the assay on Canis familiaris [3] it was 1 milliequivalent/kg; with Canis familiaris [5], 0.22 milliequivalent/kg; in the assay with Canis familiaris [7], 1.1 milliequivalent/kg.

`NC(=O)Nc1cc(C(=O)O)cc(NCc2ccccc2)c1Oc1ccccc1`: the Activity with Canis familiaris [1] is 13 mL/kg; in the assay on Canis familiaris [3], 1.3 milliequivalent/kg; in the assay with Canis familiaris [5], 0.33 milliequivalent/kg; with Canis familiaris [7], 1.7 milliequivalent/kg.

`CN(C)c1cc(C(=O)O)cc(OCc2ccccc2)c1C(=O)c1ccccc1`: the Activity entry with Canis familiaris [1] (Canis lupus familiaris, Urine) is “inactive”; in the assay with Canis familiaris [3] (Canis lupus familiaris, Urine) it was “inactive”; in the assay on Canis familiaris [5] (Canis lupus familiaris, Urine) it was “inactive”; with Canis familiaris [7] (Canis lupus familiaris, Urine), “inactive”.

`CC(=O)Nc1cc(C(=O)O)cc(OCc2ccccc2)c1C(=O)c1ccccc1`: the Activity in the assay on Canis familiaris [1] was found to be 14 mL/kg; with Canis familiaris [3], 1.3 milliequivalent/kg; in the assay on Canis familiaris [5], 0.45 milliequivalent/kg; in the assay with Canis familiaris [7], 3 milliequivalent/kg.

As for `O=C(O)c1cc(NC(=O)c2ccccc2)c(C(=O)c2ccccc2)c(OCc2ccccc2)c1`, the outcome in the assay with Canis familiaris [1] (Canis lupus familiaris, Urine) was inactive.

`CNC(=O)Nc1cc(C(=O)O)cc(NCc2ccccc2)c1Oc1ccccc1`: the Activity amounted to 8 mL/kg with Canis familiaris [1], 0.7 milliequivalent/kg with Canis familiaris [3], 0.2 milliequivalent/kg in the assay with Canis familiaris [5] and 1.1 milliequivalent/kg with Canis familiaris [7].

In the case of `O=CNc1cc(C(=O)O)cc(NCc2ccccc2)c1-c1ccccc1`, the Activity was 12 mL/kg with Canis familiaris [1], 1.6 milliequivalent/kg in the assay with Canis familiaris [3], 0.43 milliequivalent/kg in the assay with Canis familiaris [5] and 1.7 milliequivalent/kg in the assay on Canis familiaris [7].

Take `O=CNc1cc(C(=O)O)cc(SCc2ccccc2)c1-c1ccccc1`: in the assay on Canis familiaris [1] (Canis lupus familiaris, Urine), the result was inactive.

Regarding `C=CCSc1cc(C(=O)O)cc(NC=O)c1C(=O)c1ccccc1`, the outcome in the assay with Canis familiaris [1] (Canis lupus familiaris, Urine) was inactive.

As to `O=C(CCl)Nc1cc(C(=O)O)cc(OCc2ccccc2)c1C(=O)c1ccccc1`, the outcome in the assay on Canis familiaris [1] (Canis lupus familiaris, Urine) was inactive.

`CNc1cc(C(=O)O)cc(OCc2ccccc2)c1C(=O)c1ccccc1`: the Activity result was “inactive” in the assay with Canis familiaris [1] (Canis lupus familiaris, Urine); “inactive” with Canis familiaris [3] (Canis lupus familiaris, Urine); “inactive” in the assay on Canis familiaris [5] (Canis lupus familiaris, Urine); “inactive” in the assay on Canis familiaris [7] (Canis lupus familiaris, Urine).

With `O=CNc1cc(C(=O)O)cc(OCc2ccsc2)c1C(=O)c1ccccc1`, the Activity in the assay with Canis familiaris [2] is 17 mL/kg; with Canis familiaris [4] it was 2.2 milliequivalent/kg; with Canis familiaris [9], 3.1 milliequivalent/kg; in the assay with Canis familiaris [6], 0.49 milliequivalent/kg; in the assay on Canis familiaris [8], 2.8 milliequivalent/kg; in the assay with Canis familiaris [10] it was 26 mL/kg. The figures for the Activity in the assay on Canis familiaris [11] and in the assay on Canis familiaris [12] were 0.64 milliequivalent/kg and 4.1 milliequivalent/kg, respectively.

Turning to `CCCNC(=O)Nc1cc(C(=O)O)cc(NCc2ccccc2)c1Oc1ccccc1`, the Activity in the assay with Canis familiaris [1] was found to be 4 mL/kg; in the assay with Canis familiaris [13] it was 11 mL/kg; in the assay with Canis familiaris [3] it was 0.4 milliequivalent/kg; with Canis familiaris [14] it was 1.1 milliequivalent/kg; with Canis familiaris [5], 0.12 milliequivalent/kg; with Canis familiaris [15], 0.4 milliequivalent/kg. Also, the Activity in the assay on Canis familiaris [7] came out at 0.3 milliequivalent/kg; with Canis familiaris [16] it was 1.9 milliequivalent/kg.

Regarding `CC(C)CCSc1cc(C(=O)O)cc(NC=O)c1C(=O)c1ccccc1`, the Activity with Canis familiaris [9] stood at 1.6 milliequivalent/kg; in the assay on Canis familiaris [10] it was 15 mL/kg; in the assay on Canis familiaris [11], 0.39 milliequivalent/kg; in the assay on Canis familiaris [12], 1.9 milliequivalent/kg.

Consider `O=CNc1cc(C(=O)O)cc(OCc2ccccc2)c1-c1ccccc1`, for which the Activity with Canis familiaris [1] stood at 12 mL/kg; with Canis familiaris [3], 1.3 milliequivalent/kg; in the assay with Canis familiaris [5], 0.39 milliequivalent/kg; in the assay with Canis familiaris [7], 1.6 milliequivalent/kg.

Turning to `O=C(O)c1cc(NC(=O)C(F)(F)F)c(C(=O)c2ccccc2)c(OCc2ccccc2)c1`, the result in the assay on Canis familiaris [10] (Canis lupus familiaris, Urine) was inactive.

`CCCCOc1cc(C(=O)O)cc(NC=O)c1C(=O)c1ccccc1`: the Activity in the assay on Canis familiaris [1] came out at 17 mL/kg; in the assay on Canis familiaris [17], 6 mL/kg; with Canis familiaris [3], 2.1 milliequivalent/kg; in the assay on Canis familiaris [18], 0.5 milliequivalent/kg.

Take `CCCSc1cc(C(=O)O)cc(NC=O)c1C(=O)c1ccccc1`: the Activity in the assay on Canis familiaris [1] came out at 8 mL/kg; with Canis familiaris [3] it was 1 milliequivalent/kg; in the assay on Canis familiaris [5], 0.42 milliequivalent/kg; in the assay on Canis familiaris [7], 1.2 milliequivalent/kg.

As for `CC(=O)Nc1cc(C(=O)O)cc(NCc2ccccc2)c1Oc1ccccc1`, the Activity in the assay with Canis familiaris [1] was 11 mL/kg; with Canis familiaris [13], 27 mL/kg; in the assay on Canis familiaris [3], 1.4 milliequivalent/kg; with Canis familiaris [14] it was 2.8 milliequivalent/kg; in the assay on Canis familiaris [5], 0.55 milliequivalent/kg; in the assay with Canis familiaris [15], 0.8 milliequivalent/kg. Moreover, the Activity worked out at 2.1 milliequivalent/kg with Canis familiaris [7] and 3.8 milliequivalent/kg with Canis familiaris [16].

As for `CCCOc1cc(C(=O)O)cc(NC=O)c1C(=O)c1ccccc1`, the Activity in the assay with Canis familiaris [1] is 10 mL/kg; in the assay on Canis familiaris [3], 2 milliequivalent/kg; in the assay on Canis familiaris [5] it was 0.52 milliequivalent/kg; with Canis familiaris [7], 1.2 milliequivalent/kg.

In the case of `O=CNc1cc(C(=O)O)cc(SCc2ccsc2)c1Oc1ccccc1`, the Activity was determined as 11 mL/kg in the assay with Canis familiaris [1], 1.3 milliequivalent/kg in the assay with Canis familiaris [3], 0.45 milliequivalent/kg with Canis familiaris [5] and 1.9 milliequivalent/kg with Canis familiaris [7].

As to `CN(C=O)c1cc(C(=O)O)cc(OCc2ccccc2)c1C(=O)c1ccccc1`, the Activity result in the assay with Canis familiaris [1] (Canis lupus familiaris, Urine) is “Active”; in the assay on Canis familiaris [3] (Canis lupus familiaris, Urine) it was “Active”; in the assay on Canis familiaris [5] (Canis lupus familiaris, Urine), “Active”; in the assay on Canis familiaris [7] (Canis lupus familiaris, Urine), “Active”.

For `CCNc1cc(C(=O)O)cc(OCc2ccccc2)c1C(=O)c1ccccc1`, the Activity entry in the assay with Canis familiaris [1] (Canis lupus familiaris, Urine) was “inactive”; with Canis familiaris [3] (Canis lupus familiaris, Urine), “inactive”; in the assay with Canis familiaris [5] (Canis lupus familiaris, Urine), “inactive”; with Canis familiaris [7] (Canis lupus familiaris, Urine), “inactive”.

In the case of `O=CNc1cc(C(=O)O)cc(SCc2ccccc2)c1Oc1ccccc1`, the result with Canis familiaris [1] (Canis lupus familiaris, Urine) was inactive.

Regarding `CCCCOc1cc(C(=O)O)cc(NC(C)=O)c1C(=O)c1ccccc1`, the Activity in the assay on Canis familiaris [9] was determined as 2.1 milliequivalent/kg; in the assay on Canis familiaris [10] it was 18 mL/kg; with Canis familiaris [11], 0.53 milliequivalent/kg; in the assay with Canis familiaris [12], 2.5 milliequivalent/kg.

Take `CCN(C=O)c1cc(C(=O)O)cc(OCc2ccccc2)c1C(=O)c1ccccc1`: the Activity result in the assay on Canis familiaris [1] (Canis lupus familiaris, Urine) was “inactive”; with Canis familiaris [3] (Canis lupus familiaris, Urine), “inactive”; in the assay on Canis familiaris [5] (Canis lupus familiaris, Urine), “inactive”; in the assay on Canis familiaris [7] (Canis lupus familiaris, Urine), “inactive”.

As to `CC(=O)Nc1cc(C(=O)O)cc(NCc2ccccc2)c1C(=O)c1ccccc1`, the Activity with Canis familiaris [1] was determined as 6 mL/kg; in the assay with Canis familiaris [13], 22 mL/kg; with Canis familiaris [3], 0.4 milliequivalent/kg; in the assay with Canis familiaris [14], 1.7 milliequivalent/kg; in the assay with Canis familiaris [5], 0.21 milliequivalent/kg; in the assay with Canis familiaris [15] it was 0.58 milliequivalent/kg. Besides, the Activity stood at 0.4 milliequivalent/kg in the assay on Canis familiaris [7] and 2.2 milliequivalent/kg in the assay with Canis familiaris [16].

On to `CCC(=O)Nc1cc(C(=O)O)cc(OCc2ccccc2)c1C(=O)c1ccccc1`, for which the Activity in the assay with Canis familiaris [1] was found to be 7 mL/kg; in the assay on Canis familiaris [3], 0.6 milliequivalent/kg; in the assay with Canis familiaris [5] it was 0.2 milliequivalent/kg; in the assay with Canis familiaris [7] it was 0.9 milliequivalent/kg.

On to `CN(C)CC(=O)Nc1cc(C(=O)O)cc(OCc2ccccc2)c1C(=O)c1ccccc1`, for which the result in the assay on Canis familiaris [10] (Canis lupus familiaris, Urine) was inactive.
